From ChEMBL document CHEMBL4184082 (Bioorg Med Chem Lett, 2018)
≈ marks a conversion by molar mass, not a printed value.

What was measured:
[1] = AUC (0 to last) in rat at 100 mg/kg; format: ADME, organism-based; design: dose 100 mg/kg, time 0 - last; conditions: in vivo
[2] = AUC (0 to last) in rat at 300 mg/kg; format: ADME, organism-based; design: dose 300 mg/kg, time 0 - last; conditions: in vivo
[3] = Thermodynamic solubility of the compound; format: physicochemical; conditions: read-out: Therm_solubility
Mus musculus = experiment: Reversal of thermal injury-induced muscle damage in C57BL/6 mouse assessed as reduction in Evans blue dye retention time at 10 mg/kg, po administered once daily via gavage treated for 10 days prior to thermal injury on day 4 and subsequent Evans blue dye injection on day 8 measured on day 9 post last dose relative to control; format: functional; design: scale not given: the % may be the effect or the level left
Rattus norvegicus [4] = experiment: Tumorigenic activity in rat assessed as effect on cell proliferation in non-glandular stomach at 30 mg/kg administered for 14 days measured on post last dose by Ki-67 staining based histopathological analysis relative to control; format: ADME, organism-based; conditions: in vivo, 336 h
Rattus norvegicus [5] = experiment: Tumorigenic activity in rat assessed as effect on cell proliferation in non-glandular stomach at 100 mg/kg administered for 14 days measured on post last dose by Ki-67 staining based histopathological analysis relative to control; format: ADME, organism-based; conditions: in vivo, 336 h
Rattus norvegicus [6] = experiment: Tumorigenic activity in rat assessed as effect on cell proliferation in non-glandular stomach at 300 mg/kg administered for 6 days and subsequent treatment at 200 mg/kg for 3 days measured on post last dose by Ki-67 staining based histopathological analysis relative to control; format: ADME, organism-based; conditions: in vivo
Rattus norvegicus [7] = experiment: Toxicity in rat assessed as reduction in body weight at 300 mg/kg administered for 6 days; format: organism-based; conditions: in vivo, 144 h
Rattus norvegicus [8] = experiment: Toxicity in rat assessed as effect on food intake at 300 mg/kg administered for 6 days; format: organism-based; conditions: in vivo, 144 h
[9] = AUC (0 to last) in rat at 30 mg/kg; format: ADME, organism-based; design: dose 30 mg/kg, time 0 - last; conditions: in vivo
[10] = AUC (0 to last) in rat at 300 mg/kg measured on day 8; format: ADME, organism-based; design: dose 300 mg/kg, time 0 - last; conditions: in vivo

| Structure (SMILES) | AUC(0-t) [1] | AUC(0-t) [2] | solubility thermodynamic [3] | Activity (Mus musculus) | Activity (Rattus norvegicus [4]) | Activity (Rattus norvegicus [5]) | Activity (Rattus norvegicus [6]) | Activity (Rattus norvegicus [7]) | Activity (Rattus norvegicus [8]) | AUC(0-t) [9] | AUC(0-t) [10] |
| --- | --- | --- | --- | --- | --- | --- | --- | --- | --- | --- | --- |
| C/C(=C\COc1ccccc1CN(C)C(=O)c1ccc(-c2ccco2)cc1)CCC(=O)O | 48 µg·h/mL | 201 µg·h/mL |  |  |  |  |  |  |  |  |  |
| Cc1cc(SCc2sc(-c3ccc(C(F)(F)F)cc3)nc2C)ccc1OCC(=O)O [GW501516] | 613 µg·h/mL |  | 250 µM (≈ 113 µg/mL) | 48% | 34% | 81% | 190% | Toxic | Toxic | 72 µg·h/mL | 2270 µg·h/mL |
